According to US9981969B2, “Imidazole derivatives and methods of use thereof for improving the pharmacokinetics of a drug” (MERCK SHARP & DOHME CORP., priority 2013, dated 2018):

Columns and labels:
CYP2D6 = target: T1, CYP2D6 (Homo sapiens, UniProt P10635); assay: Cocktail assay for CYPs in human liver microsomes, dextromethorphan O-demethylation (2D6); type: biochemical; details: 5 μM dextromethorphan, 10 min at 37° C.
T1 construct: 0.1 mg/mL protein human liver microsomes (BD Gentest); tissue BD Gentest; host or cells: human liver microsomes
Procedure: (§1) This assay was performed in a standard 96-well plate design. IC50 values were calculated from the percent inhibition observed for each test compound at 6 concentrations (for example, 0.0032, 0.016, 0.08, 0.4, 2 and 10 μM). The incubation substrate mix contains 10 μM phenacetin (1A2), 5 μM diclofenac (2C9), 30 μM mephenytoin (2C19), 5 μM dextromethorphan (2D6) and 2 μM midazolam (3A4), 0.1 mg/mL protein human liver microsomes (BD Gentest), 1 mM NAPDH, 3.3 mM MgCl2 and 100 mM potassium phosphate buffer (pH 7.4). The production of the metabolite of each probe substrate was determined after incubation for 10 min at 37° C. Quantitation of the metabolite peak area ratio against an internal standard (tolbutamide) was determined by LC/MS/MS analysis following acetonitrile treatment of the incubations.
(§2) Samples were analyzed in the MRM mode with a SCIEX API-4000 mass spectrometer (Applied Biosystems, Foster City, Calif.), with a Shimadzu LC-20 AD pump (Shimadzu corporation, Kyoto, JP) and a CTC PAL autosampler (Agilent Technologies, Switzerland). A Phenomenex, Luna, 5 μm, 100A, 2.00×30 mm HPLC column was used for the separation. The mobile phases were: (A) 0.1% formic acid in water and (B) 0.1% formic acid in acetonitrile. The binary gradient was as follows. AutoSampler: CTC PAL
(§3) The peak area ratio of the analyte to the internal standard was used to quantify the metabolite. The values of peak area ratios in the presence of test compound were compared to those of maximum or minimum controls and were expressed as % inhibition by interpolating between the maximum and minimum peak area ratios. Incubations with no inhibitor were defined as the maxima. The following equation was used to calculate the % inhibition: [1−[(X−Low control)/(High control−Low control)]]*100 For the IC50 calculation, SigmaPlot was used to plot the mean % inhibition versus the test compound concentrations and for non-linear regression analysis of the data. Depending on the range of data points defining the inhibition curve, the data may have been fit to the 4-parameter logistic equation.

CYP3A4 = target: T2, CYP3A4 (Homo sapiens, UniProt P08684); assay: Cocktail assay for CYPs in human liver microsomes, midazolam 1′-hydroxylation (3A4); type: biochemical; details: 2 μM midazolam, 10 min at 37° C.
T2 construct: 0.1 mg/mL protein human liver microsomes (BD Gentest); tissue BD Gentest; host or cells: human liver microsomes
Procedure: as §1, §2, §3

CYP2C9 = target: T3, CYP2C9 (Homo sapiens, UniProt P11712); assay: Cocktail assay for CYPs in human liver microsomes, diclofenac 4′-hydroxylation (2C9); type: biochemical; details: 5 μM diclofenac, 10 min at 37° C.
T3 construct: 0.1 mg/mL protein human liver microsomes (BD Gentest); tissue BD Gentest; host or cells: human liver microsomes
Procedure: as §1, §2, §3

human CYP11B1 = target: T4, human CYP11B1 (Homo sapiens, UniProt P15538); assay: IC50 vs CYP11B1 by measurement of cortisol synthesis in V79 cells; type: cell-based; details: V79 cells expressing human CYP11B1, 1500 nM RSS, cortisol HTRF
T4 construct: expressed in transfected cells
T4 sequence (P15538 25-503): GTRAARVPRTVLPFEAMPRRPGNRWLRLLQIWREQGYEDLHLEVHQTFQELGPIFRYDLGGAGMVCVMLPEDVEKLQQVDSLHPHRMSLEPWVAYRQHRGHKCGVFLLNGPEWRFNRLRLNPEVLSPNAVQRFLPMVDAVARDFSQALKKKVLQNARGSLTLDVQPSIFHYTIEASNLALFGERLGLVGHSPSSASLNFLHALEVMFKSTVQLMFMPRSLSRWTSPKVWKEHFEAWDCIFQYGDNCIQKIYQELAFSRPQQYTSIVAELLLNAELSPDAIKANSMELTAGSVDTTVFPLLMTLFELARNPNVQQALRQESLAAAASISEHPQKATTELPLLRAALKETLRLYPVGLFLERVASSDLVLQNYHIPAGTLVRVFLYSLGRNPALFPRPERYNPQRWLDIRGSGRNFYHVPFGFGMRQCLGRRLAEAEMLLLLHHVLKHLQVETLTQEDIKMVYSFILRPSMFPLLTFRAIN
Procedure: (§4) This assay was performed in a standard 384-well plate design using cultured V79 cells stably expressing human CYP11B1 or human CYP11B2. Test compounds at 10 concentrations (for example, 10000, 3333.3, 1111.1, 370.4, 123.5, 41.2, 13.7, 4.6, 1.5 and 0.5 nM) were added in 384-well plate after the cell-seeding procedure. The incubation substrate contains 1500 nM RSS for CYP11B1 assay/750 nM DOC for CYP11B2 assay. The Cortisol/Aldosterone production of cell culture supernatant was determined by Cortisol/Aldosterone HTRF kit after for about 15 hours incubation at RT (protect from light). IC50 (nM) values were calculated from the percent inhibition observed for each test compound at 10 concentrations.
(§5) The assay plate was read using Envision (Perkin Elmer, Waltham, Mass.) at 665 nm and 590 nm (using Filter Barcode of 217#, 205#; Mirror Barcode of 446#).
(§6) Data are analyzed using Assay Data Analyzer. All ratio data (665 nm/590 nm) are back calculated according to the standard curve, resulting in Cortisol/Aldosterone concentrations. IC50 (nM) values are reported as the Inflection Point (IP) of a four parameter fit of the titration data.
(§7) The following equation was used to calculate the % inhibition: % Activity=100×{1−(Sample_back calculated Cortisol/Aldosterone concentration−LC_back calculated Cortisol/Aldosterone concentration)/(HC_back calculated Cortisol/Aldosterone concentration−LC_back calculated Cortisol/Aldosterone concentration)} Curve Fitting: Four Parameter Logistic: […]

human CYP11B2 = target: T5, human CYP11B2 (Homo sapiens, UniProt P19099); assay: IC50 vs CYP11B2 by measurement of aldosterone synthesis in V79 cells; type: cell-based; details: V79 cells expressing human CYP11B2, 750 nM DOC, aldosterone HTRF
T5 construct: expressed in transfected cells
T5 sequence (P19099 25-503): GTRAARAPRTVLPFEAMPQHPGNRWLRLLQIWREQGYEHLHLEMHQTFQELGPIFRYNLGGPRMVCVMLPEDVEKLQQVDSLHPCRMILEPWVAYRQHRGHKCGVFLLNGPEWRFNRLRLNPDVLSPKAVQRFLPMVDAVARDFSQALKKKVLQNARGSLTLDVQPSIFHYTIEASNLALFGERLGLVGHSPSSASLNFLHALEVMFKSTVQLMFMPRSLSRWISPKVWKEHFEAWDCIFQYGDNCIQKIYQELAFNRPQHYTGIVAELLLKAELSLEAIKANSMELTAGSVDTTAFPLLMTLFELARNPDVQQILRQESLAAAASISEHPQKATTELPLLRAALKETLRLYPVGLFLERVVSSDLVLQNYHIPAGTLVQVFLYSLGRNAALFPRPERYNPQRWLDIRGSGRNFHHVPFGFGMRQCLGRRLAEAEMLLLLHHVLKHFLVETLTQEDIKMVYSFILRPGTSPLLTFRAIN
Procedure: as §4, §5, §6, §7

CYP1A2 = target: T6, CYP1A2 (Homo sapiens, UniProt P05177); assay: Cocktail assay for CYPs in human liver microsomes, phenacetin O-deethylation (1A2); type: biochemical; details: 10 μM phenacetin, 10 min at 37° C.
T6 construct: 0.1 mg/mL protein human liver microsomes (BD Gentest); tissue BD Gentest; host or cells: human liver microsomes
T6 sequence (P05177 1-516): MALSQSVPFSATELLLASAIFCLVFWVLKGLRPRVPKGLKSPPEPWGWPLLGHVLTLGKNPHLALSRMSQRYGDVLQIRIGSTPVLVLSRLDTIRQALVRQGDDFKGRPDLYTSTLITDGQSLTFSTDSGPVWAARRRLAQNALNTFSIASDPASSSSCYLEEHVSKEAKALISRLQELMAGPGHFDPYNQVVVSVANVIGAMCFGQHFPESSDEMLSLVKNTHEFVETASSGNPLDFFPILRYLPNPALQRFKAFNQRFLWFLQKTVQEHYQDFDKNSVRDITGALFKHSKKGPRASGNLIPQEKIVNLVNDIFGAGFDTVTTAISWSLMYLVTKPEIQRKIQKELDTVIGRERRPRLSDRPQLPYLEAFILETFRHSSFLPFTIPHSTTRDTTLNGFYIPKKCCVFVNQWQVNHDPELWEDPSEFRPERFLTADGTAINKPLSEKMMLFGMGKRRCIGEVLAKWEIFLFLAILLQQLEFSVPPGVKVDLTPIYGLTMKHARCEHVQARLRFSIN
Procedure: as §1, §2, §3

CYP2C19 = target: T7, CYP2C19 (Homo sapiens, UniProt P33261); assay: Cocktail assay for CYPs in human liver microsomes, mephenytoin 4′-hydroxylation (2C19); type: biochemical; details: 30 μM mephenytoin, 10 min at 37° C.
T7 construct: 0.1 mg/mL protein human liver microsomes (BD Gentest); tissue BD Gentest; host or cells: human liver microsomes
Procedure: as §1, §2, §3

T2 sequence (P08684 whole entry): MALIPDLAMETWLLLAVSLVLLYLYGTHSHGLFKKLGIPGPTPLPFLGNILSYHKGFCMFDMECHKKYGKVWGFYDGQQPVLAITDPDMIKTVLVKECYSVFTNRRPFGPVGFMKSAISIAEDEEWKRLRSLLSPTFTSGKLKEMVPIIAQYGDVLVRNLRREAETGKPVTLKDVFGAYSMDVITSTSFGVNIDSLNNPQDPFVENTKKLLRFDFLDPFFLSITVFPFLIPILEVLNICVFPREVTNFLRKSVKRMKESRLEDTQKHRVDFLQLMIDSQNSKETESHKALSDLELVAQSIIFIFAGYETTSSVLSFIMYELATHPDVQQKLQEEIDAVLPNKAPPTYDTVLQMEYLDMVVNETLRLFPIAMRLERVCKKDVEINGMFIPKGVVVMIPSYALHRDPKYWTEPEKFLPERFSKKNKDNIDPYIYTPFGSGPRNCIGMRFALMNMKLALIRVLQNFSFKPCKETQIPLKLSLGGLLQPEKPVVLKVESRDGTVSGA
T1 sequence (P10635 whole entry): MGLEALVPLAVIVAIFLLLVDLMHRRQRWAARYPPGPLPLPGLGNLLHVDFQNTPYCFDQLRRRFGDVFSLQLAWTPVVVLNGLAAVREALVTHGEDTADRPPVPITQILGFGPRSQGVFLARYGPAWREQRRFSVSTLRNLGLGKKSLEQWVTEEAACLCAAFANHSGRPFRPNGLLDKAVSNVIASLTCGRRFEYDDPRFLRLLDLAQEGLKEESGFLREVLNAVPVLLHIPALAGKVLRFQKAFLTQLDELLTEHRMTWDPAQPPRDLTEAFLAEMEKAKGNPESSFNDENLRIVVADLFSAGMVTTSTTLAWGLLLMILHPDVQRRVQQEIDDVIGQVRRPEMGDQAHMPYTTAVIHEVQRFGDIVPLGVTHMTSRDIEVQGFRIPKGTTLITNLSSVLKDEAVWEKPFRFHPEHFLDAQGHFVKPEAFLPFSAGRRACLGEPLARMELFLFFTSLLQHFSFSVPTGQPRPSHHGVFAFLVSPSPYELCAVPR
T3 sequence (P11712 whole entry): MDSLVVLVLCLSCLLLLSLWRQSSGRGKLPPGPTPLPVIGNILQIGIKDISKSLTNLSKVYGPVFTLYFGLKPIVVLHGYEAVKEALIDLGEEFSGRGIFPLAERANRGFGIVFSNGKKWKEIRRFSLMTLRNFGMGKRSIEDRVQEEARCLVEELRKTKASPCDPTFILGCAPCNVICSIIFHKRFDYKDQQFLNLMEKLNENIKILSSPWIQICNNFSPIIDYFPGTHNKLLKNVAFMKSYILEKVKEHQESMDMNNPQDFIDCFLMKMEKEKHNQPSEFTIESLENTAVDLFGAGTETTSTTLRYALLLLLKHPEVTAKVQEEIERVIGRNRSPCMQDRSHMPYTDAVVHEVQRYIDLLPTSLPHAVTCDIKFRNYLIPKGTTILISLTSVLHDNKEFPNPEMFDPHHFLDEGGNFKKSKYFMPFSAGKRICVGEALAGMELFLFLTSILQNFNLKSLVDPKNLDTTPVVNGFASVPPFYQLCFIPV
T7 sequence (P33261 whole entry): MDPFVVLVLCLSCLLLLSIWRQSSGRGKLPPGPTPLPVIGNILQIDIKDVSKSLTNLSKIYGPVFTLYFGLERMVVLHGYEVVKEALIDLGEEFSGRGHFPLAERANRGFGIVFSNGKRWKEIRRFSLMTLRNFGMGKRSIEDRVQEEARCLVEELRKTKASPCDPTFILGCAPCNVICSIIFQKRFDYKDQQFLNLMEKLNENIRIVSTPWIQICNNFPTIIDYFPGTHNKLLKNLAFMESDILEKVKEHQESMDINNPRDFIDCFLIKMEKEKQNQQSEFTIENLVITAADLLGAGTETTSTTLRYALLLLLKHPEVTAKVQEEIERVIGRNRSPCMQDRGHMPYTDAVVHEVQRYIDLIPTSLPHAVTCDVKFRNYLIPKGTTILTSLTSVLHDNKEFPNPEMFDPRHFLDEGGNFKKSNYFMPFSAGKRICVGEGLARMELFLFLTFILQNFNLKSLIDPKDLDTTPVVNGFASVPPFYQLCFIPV

| Compound | IC50 (CYP2D6) [µM] | IC50 (CYP3A4) [µM] | IC50 (CYP2C9) [µM] | IC50 (human CYP11B1) [µM] | IC50 (human CYP11B2) [µM] | IC50 (CYP1A2) [µM] | IC50 (CYP2C19) [µM] |
| --- | --- | --- | --- | --- | --- | --- | --- |
| C[C@@H](c1ccccc1-c1cc(F)cc(F)c1)n1cncc1C(=O)N1CCC2NCCO[C@@H]2C1 (some centres unmarked) [Compound 37] | > 10 | 0.0097 | > 10 | 19.7 | > 50 | > 10 | > 10 |
| C[C@@H](c1ccccc1-c1ccc(F)cc1F)n1cncc1C(=O)N1CCC2NCCO[C@@H]2C1 (some centres unmarked) [Compound 38] | > 10 | 0.0089 | > 10 | 25.3 | > 50 | > 10 | > 10 |
| C[C@@H](c1ccccc1-c1ccc(F)c(F)c1F)n1cncc1C(=O)N1CCC2NCCO[C@@H]2C1 (some centres unmarked) [Compound 39] | 9.45 | 0.0048 | > 10 | 14.6 | > 50 | > 10 | > 10 |
| CCOc1ncccc1-c1ccccc1[C@H](C)n1cncc1C(=O)N1CCC2NCCO[C@@H]2C1 (some centres unmarked) [Compound 40] | > 10 | 0.0095 | > 10 | 33.3 | 25.9 | > 10 | > 10 |
| C[C@@H](c1ccccc1-c1ccc(Cl)nc1)n1cncc1C(=O)N1CCC2NCCO[C@@H]2C1 (some centres unmarked) [Compound 41] | 7.48 | 0.0071 | > 10 | 42.2 | > 50 | > 10 | > 10 |
| C[C@@H](c1ccccc1-c1ccccc1OC(F)(F)F)n1cncc1C(=O)N1CCC2NCCO[C@@H]2C1 (some centres unmarked) [Compound 42] | > 10 | 0.0047 | > 10 | 5.62 | > 50 | > 10 | > 10 |
| C[C@@H](c1ccccc1-c1cccc2c1OCC2)n1cncc1C(=O)N1CCC2NCCO[C@@H]2C1 (some centres unmarked) [Compound 43] | 7.09 | 0.0066 | > 10 | 30.3 | > 50 | > 10 | > 10 |
| COc1ccccc1-c1ccccc1[C@H](C)n1cncc1C(=O)N1CCC2NCCO[C@@H]2C1 (some centres unmarked) [Compound 44] | 5.86 | 0.005 | > 10 | 12.2 | > 50 | > 10 | > 10 |
